Experimental data published in patent publication US8168617B2, “Complex pantoic acid ester neopentyl sulfonyl ester cyclization release prodrugs of acamprosate, compositions thereof, and methods of use” (XenoPort, Inc., priority 2007, dated 2012).

How the values were obtained:
[1] = rat, in vivo
Procedure: Rats were obtained commercially and were pre-cannulated in the jugular vein. Animals were conscious at the time of the experiment. All animals were fasted overnight and until 4 hours post-dosing of a prodrug of Formula (I).
Rat blood samples (0.3 mL/sample) were collected from all animals prior to dosing and at different time-points up to 24 h post-dose into tubes containing EDTA. Two aliquots (100 μL each) were quenched with 300 μL methanol and stored at −20° C. prior to analysis.
To prepare analysis standards, 90 μL of rat blood was quenched with 300 μL methanol followed by 10 μL of spiking standard and/or 20 μL of internal standard. The sample tubes were vortexed for at least 2 min and then centrifuged at 3400 rpm for 20 min. […]
LC-MS-MS analysis was performed using an API 4000 equipped with Agilent 1100 HPLC and a Leap Technologies autosampler. […] Acamprosate was monitored in negative ion mode. […] Prodrug was monitored in positive ion mode. […]
The percent relative bioavailability (F %) of acamprosate was determined by comparing the area under the acamprosate concentration vs time curve (AUC) following oral or colonic administration of an acamprosate prodrug or acamprosate with the AUC of the acamprosate concentration vs time curve following intravenous administration of acamprosate on a dose normalized basis.

cocaine conditioned mice = conditions: 100 mg/kg acamprosate for 3 days; cited from earlier work
[2] = post-dose; doses about 1-2 gm per day; cited from earlier work

Row | SMILES | acamprosate colonic bioavailability relative to the acamprosate colonic bioavailability of an equivalent dose of acamprosate itself [1] | acamprosate oral bioavailability relative to the acamprosate oral bioavailability of an equivalent dose of acamprosate itself [1] | relapse-like behavior (cocaine conditioned mice) | time at which steady-state plasma concentration occurs [2] [h]
1 | CC(=O)NCCCS(=O)(=O)OCC(C)(C)[C@@H](O)C(=O)OC(C)OC(=O)OC(C)C (stereo partly drawn) [Compound 40, (Methylethoxycarbonyloxy)ethyl (2R)-4-{[3-(acetylamino)propyl]sulfonyloxy}-2-hydroxy-3,3-dimethylbutanoate] | at least 5 times | at least 5 times |  | 
2 | CC(=O)NCCCS(=O)(=O)O [acamprosate, 3-(Acetylamino)propylsulfonic acid] |  |  | attenuated relapse-like behavior | 3 to 8
